Experimental data: article PMC10791652, “The adhesion GPCR GPR116/ADGRF5 has a dual function in pancreatic islets regulating somatostatin release and islet development” (Communications Biology, 2024)
Numbered stars: 1 amine (or outer) side, 2 acyl side, 3 side chain; on linkers, the order of the positions; unused ones are H or OH. Bridge positions count the residues as written; N and C are the ends. Square brackets hold non-standard residues; d marks the D form. Ends that are not written are not given here. Peptide text beside a SMILES is read from it. * marks the point of attachment. Leu(3R-OH,Nα-propionyl) = CCC(=O)N[C@H](C(=O)*)[C@H](O)C(C)C; X1 = CC(C)[C@@H](O[*:3])[C@H](N[*:1])C(=O)[*:2]; NMeT = CN[C@H](C(=O)O)[C@@H](C)O; dPhLac = O=C(O)[C@H](O)Cc1ccccc1; NMeA = CN[C@@H](C)C(=O)O; NMeDha = C=C(NC)C(=O)O

Experiments:
[1] = tested on: mock-transfected HEK293T cells; assay: Fura-2 Ca2+ imaging in mock-transfected HEK293T cells; type: cell-based; settings: 1 mM peptide or 100 µM ATP
Procedure: (§1) Fura-2-based Ca^2+ imaging was performed in transfected HEK293T cells (Supplementary Experimental Procedures) and intact pancreatic islets using a monochromator-based imaging system, and the imaging software TILLvisION 4.0 (T.I.L.L. Photonics). Emitted fluorescence (excited at 340 and 380 nm) was acquired at intervals of 2 seconds and corrected for background fluorescence. HEK293T cells and islets were loaded with 5 µM fura-2 AM in standard bath solution containing 140 mM NaCl, 10 mM HEPES, 5 mM KCl, 2 mM CaCl2, 1 mM MgCl2, and 3 mM glucose for 30 or 60 min. HEK293T cells (25,000 cells/well) were seeded into 24-well plates on poly-L-lysine coated glass cover slips and were transiently transfected with plasmids encoding for GPR116 and GFP the next day. Ca^2+ imaging was carried out 72 h post transfection. HEK293T cells were exposed to p116sc, p116 (1 mM each), and ATP (100 µM) in standard bath solution. Pancreatic mouse islets (3 - 4 islets per coverslip) were transferred one day after preparation into 12-well plates on poly-L-lysine coated glass cover slips. 48 h after seeding islets were exposed to 1 mM p116sc, 1 mM p116, and 100 µM carbachol (CCh) in standard bath solution.

[2] = tested on: endogenous purinergic receptors; assay: Fura-2 Ca2+ imaging in HEK293T cells (ATP control); type: cell-based; settings: 100 µM ATP
Procedure: as §1

[3] = tested on: growth hormone secretagogue receptor/ghrelin (GHS-R) receptor; assay: Fura-2 Ca2+ imaging in intact pancreatic islets (ghrelin); type: cell-based, mouse; settings: 300 nM ghrelin
[4] = tested on: Gαq/11 protein; assay: Somatostatin secretion from islets after pre-incubation with Gq inhibitor; type: cell-based, mouse; settings: pre-incubation with FR900359, then 2 mM p116, high glucose, 30 min
Procedure: Equilibration of five islets was performed in KRB containing 2.8 mM glucose for 30 min at 37 °C in 96-well plates. If not mentioned otherwise, islets were stimulated with peptide solution or respective controls in KRB for 30 min at 37 °C. Islets were lysed with acid ethanol and supernatant as well as lysates kept frozen at −20 °C until measurement. To measure insulin the AlphaLISA technology (Perkin Elmer) was used according to the manufacturer’s protocol in 384-well OptiPlate microplates (Perkin Elmer) with the EnVision Multilabel Reader (Perkin Elmer). Somatostatin amounts were determined using either AlphaLISA (Perkin Elmer) or ELISA (Phoenix Pharmaceuticals). For reliable measurement protocol adaptions were necessary. For AlphaLISA these were as follows: increasing sample volumes to 35 µl/well, reduced bead volume of 5 µl/well, and an extended incubation period with donor beads of 90 min. For the ELISA measurement the sample incubation time was extended to over-night and the biotinylated peptide was diluted 1:5 to achieve reliable results.

[5] = tested on: muscarinic acetylcholine receptors; assay: Fura-2 Ca2+ imaging in intact pancreatic islets (carbachol positive control); type: cell-based, mouse; settings: 100 µM carbachol, fura-2 ratio F340/F380
Procedure: as §1

In the case of `Nc1ncnc2c1ncn2[C@@H]1O[C@H](COP(=O)(O)OP(=O)(O)OP(=O)(O)O)[C@@H](O)[C@H]1O` [ATP], the “intracellular Ca2+ response in mock-transfected cells” value [1] is reported as “strongly increased intracellular Ca2+ levels” and the “intracellular Ca2+ transients in GPR116-transfected HEK293T cells” value [2] is reported as “induced”.

In the case of “ghrelin (GSSFLSPEHQRVQQRKESKKPPAKLQP; ends and bridges not checked; UniProt Q9UBU3 24-50, looked up)”, the “Ca2+ response in insulin-expressing beta cells of islets” value ([3]; MIP-GFP mouse islets, EGFP-positive regions) is reported as “absent in insulin-expressing beta cells” and the “Ca2+ response in pancreatic islets” value ([3]; then 1 mM p116, MIP-GFP mouse islets) is reported as “elicited Ca^2+ signals with partially overlapping localization”.

In the case of `C=C1C(=O)N[C@@H](C)C(=O)N(C)[C@@H](C)C(=O)N[C@@H]([C@H](OC(=O)[C@@H](NC(=O)CC)[C@H](O)C(C)C)C(C)C)C(=O)N(C)[C@@H]([C@@H](C)OC)C(=O)O[C@H](C(C)C)[C@H](NC(C)=O)C(=O)O[C@H](Cc2ccccc2)C(=O)N1C` [FR900359] (Ac-[X1][dPhLac][NMeDha]A[NMeA][X1](Leu(3R-OH,Nα-propionyl))[NMeT](Me); ester 1-C), the “effect of Gq inhibitor on p116-induced somatostatin secretion” value [4] is reported as “completely abolished somatostatin secretion”.

For `C[N+](C)(C)CCOC(N)=O` [CCh, carbachol], the “Ca2+ response in pancreatic islets” value [5] was “strong Ca^2+ elevation”.
